Measured values: article PMC6784069 (Toxins, 2019)
Read-outs that look alike come from different tables or passages of the source. Residues, ends and D or L forms follow the SMILES beside them.

What was measured:
[1] = biological target: T1, hNaV1.7 (Homo sapiens, UniProt Q15858); assay: cell-based; type: cell-based; details: for IC50: hNaV1.7 IC50
[2] = biological target: hCaV1.2 (Homo sapiens, UniProt Q13936); assay: cell-based; details: read-out: IC90–95 (compound concentration necessary to inhibit 90–95% of current)
[3] = test system: OD1-induced painful behavior of mice; details: mouse, in vivo; cited from earlier work
[4] = biological target: T1, hNaV1.7; details: cited from earlier work

T1 sequence (Q15858 whole entry): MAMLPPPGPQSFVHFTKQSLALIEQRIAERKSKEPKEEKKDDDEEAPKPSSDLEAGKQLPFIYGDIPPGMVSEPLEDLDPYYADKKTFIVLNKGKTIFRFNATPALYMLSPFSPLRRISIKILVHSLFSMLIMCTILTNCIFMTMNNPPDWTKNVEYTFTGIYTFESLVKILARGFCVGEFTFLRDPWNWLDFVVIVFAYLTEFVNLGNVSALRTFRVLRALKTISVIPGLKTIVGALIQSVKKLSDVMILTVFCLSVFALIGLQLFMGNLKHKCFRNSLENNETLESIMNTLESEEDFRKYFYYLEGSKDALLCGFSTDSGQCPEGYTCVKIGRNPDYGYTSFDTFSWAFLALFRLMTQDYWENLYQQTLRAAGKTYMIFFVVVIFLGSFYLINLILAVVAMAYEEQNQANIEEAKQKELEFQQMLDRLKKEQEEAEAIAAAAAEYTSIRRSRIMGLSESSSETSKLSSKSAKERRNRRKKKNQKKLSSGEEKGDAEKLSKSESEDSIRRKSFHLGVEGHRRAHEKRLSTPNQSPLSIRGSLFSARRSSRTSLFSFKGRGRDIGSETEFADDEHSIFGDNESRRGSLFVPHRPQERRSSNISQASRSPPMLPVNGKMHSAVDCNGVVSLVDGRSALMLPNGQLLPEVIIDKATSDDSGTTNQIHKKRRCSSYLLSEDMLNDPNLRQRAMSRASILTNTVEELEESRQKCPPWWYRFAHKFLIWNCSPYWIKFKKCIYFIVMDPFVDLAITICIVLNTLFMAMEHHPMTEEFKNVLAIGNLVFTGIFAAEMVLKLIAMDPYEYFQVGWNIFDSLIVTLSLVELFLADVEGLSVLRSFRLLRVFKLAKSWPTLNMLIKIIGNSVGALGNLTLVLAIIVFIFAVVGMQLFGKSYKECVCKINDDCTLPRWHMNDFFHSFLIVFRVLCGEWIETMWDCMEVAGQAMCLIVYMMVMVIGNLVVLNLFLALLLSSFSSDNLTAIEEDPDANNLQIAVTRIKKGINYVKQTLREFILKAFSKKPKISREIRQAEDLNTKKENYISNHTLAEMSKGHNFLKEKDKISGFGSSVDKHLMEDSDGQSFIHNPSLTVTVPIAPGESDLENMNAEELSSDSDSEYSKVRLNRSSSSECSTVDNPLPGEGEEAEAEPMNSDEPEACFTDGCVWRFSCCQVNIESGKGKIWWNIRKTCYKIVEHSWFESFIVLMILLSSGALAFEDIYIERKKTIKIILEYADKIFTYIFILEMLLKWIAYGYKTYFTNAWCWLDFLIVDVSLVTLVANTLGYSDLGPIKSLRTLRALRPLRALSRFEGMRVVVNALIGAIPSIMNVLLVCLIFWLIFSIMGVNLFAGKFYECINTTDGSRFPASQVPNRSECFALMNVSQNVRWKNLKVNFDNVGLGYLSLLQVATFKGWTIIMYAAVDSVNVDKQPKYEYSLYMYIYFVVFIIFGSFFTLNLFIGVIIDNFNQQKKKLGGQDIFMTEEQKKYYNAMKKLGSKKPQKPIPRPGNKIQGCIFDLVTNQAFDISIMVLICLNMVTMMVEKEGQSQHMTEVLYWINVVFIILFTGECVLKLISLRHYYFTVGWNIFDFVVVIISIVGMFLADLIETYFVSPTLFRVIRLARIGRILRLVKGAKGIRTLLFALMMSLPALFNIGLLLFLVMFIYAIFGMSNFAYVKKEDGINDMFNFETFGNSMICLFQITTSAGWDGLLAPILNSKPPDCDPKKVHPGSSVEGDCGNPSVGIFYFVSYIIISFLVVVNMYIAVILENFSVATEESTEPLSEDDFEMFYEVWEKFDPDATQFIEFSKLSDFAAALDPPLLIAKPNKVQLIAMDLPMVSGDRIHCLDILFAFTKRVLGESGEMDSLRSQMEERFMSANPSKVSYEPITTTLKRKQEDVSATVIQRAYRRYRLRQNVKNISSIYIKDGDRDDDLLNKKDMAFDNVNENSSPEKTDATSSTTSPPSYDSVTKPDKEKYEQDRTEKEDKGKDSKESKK

Compound	modification of variant affinity for hNaV1.7 relative to wild-type [1]	IC50 ([1]; SD) [nM]	further results
CC(C)C[C@@H]1NC(=O)[C@@H](NC(=O)[C@H](C)N)CSSC[C@@H]2NC(=O)[C@@H]3CSSC[C@@H](C(=O)N[C@@H](CCCNC(=N)N)C(=O)N[C@@H](Cc4ccc(O)cc4)C(=O)N[C@@H](CCCCN)C(=O)N[C@@H](CC(C)C)C(=O)N[C@@H](Cc4ccccc4)C(=O)O)NC(=O)[C@H](Cc4c[nH]c5ccccc45)NC(=O)[C@@H]4CCCN4C(=O)[C@H](Cc4ccc(O)cc4)NC(=O)[C@H](C)NC(=O)[C@H](Cc4c[nH]c5ccccc45)NC(=O)[C@H](CCC(=O)O)NC(=O)[C@H](CSSC[C@H](NC(=O)[C@H](CO)NC(=O)[C@H](CC(=O)O)NC(=O)[C@H](Cc4c[nH]c5ccccc45)NC(=O)[C@H](CCC(N)=O)NC(=O)CNC1=O)C(=O)N[C@@H](CC(=O)O)C(=O)N1CCC[C@H]1C(=O)N[C@@H](CCCCN)C(=O)N[C@@H](C)C(=O)N[C@@H](CO)C(=O)N[C@@H](CCCCN)C(=O)N3)NC(=O)[C@H](C)NC(=O)[C@H](Cc1ccc(O)cc1)NC(=O)[C@H](CC(N)=O)NC(=O)[C@@H]1CCCN1C2=O [K25A] (HELM PEPTIDE1{A.C.L.G.Q.W.D.S.C.D.P.K.A.S.K.C.C.P.N.Y.A.C.E.W.A.Y.P.W.C.R.Y.K.L.F}$PEPTIDE1,PEPTIDE1,2:R3-17:R3|PEPTIDE1,PEPTIDE1,9:R3-22:R3|PEPTIDE1,PEPTIDE1,16:R3-29:R3$$$V2.0)	–	–	IC50 [1]: > 10000 nM
[Cl][Cd][Cl] [Cadmium (chloride), reference compound]	–	–	IC90 [2]: 200000 nM
CcoTx2: spider toxin, NaV ligand (CLGWFKSCDPKNDKCCKNYTCSRRDRWCKYYL)	–	–	concentration efficient to diminish or completely reverse the OD1-induced manifestations of pain [3]: 1 µM; IC50 [4]: 95 nM
CC(C)C[C@@H]1NC(=O)[C@@H](NC(=O)[C@H](C)N)CSSC[C@@H]2NC(=O)[C@@H]3CSSC[C@@H](C(=O)N[C@@H](CCCNC(=N)N)C(=O)N[C@@H](Cc4ccc(O)cc4)C(=O)N[C@@H](CCCCN)C(=O)N[C@@H](CC(C)C)C(=O)N[C@@H](Cc4ccccc4)C(=O)O)NC(=O)[C@H](Cc4c[nH]c5ccccc45)NC(=O)[C@@H]4CCCN4C(=O)[C@H](C)NC(=O)[C@H](CCCCN)NC(=O)[C@H](Cc4c[nH]c5ccccc45)NC(=O)[C@H](CCC(=O)O)NC(=O)[C@H](CSSC[C@H](NC(=O)[C@H](CO)NC(=O)[C@H](CC(=O)O)NC(=O)[C@H](Cc4c[nH]c5ccccc45)NC(=O)[C@H](CCC(N)=O)NC(=O)CNC1=O)C(=O)N[C@@H](CC(=O)O)C(=O)N1CCC[C@H]1C(=O)N[C@@H](CCCCN)C(=O)N[C@@H](C)C(=O)N[C@@H](CO)C(=O)N[C@@H](CCCCN)C(=O)N3)NC(=O)[C@H](C)NC(=O)[C@H](Cc1ccc(O)cc1)NC(=O)[C@H](CC(N)=O)NC(=O)[C@@H]1CCCN1C2=O [Y26A] (HELM PEPTIDE1{A.C.L.G.Q.W.D.S.C.D.P.K.A.S.K.C.C.P.N.Y.A.C.E.W.K.A.P.W.C.R.Y.K.L.F}$PEPTIDE1,PEPTIDE1,2:R3-17:R3|PEPTIDE1,PEPTIDE1,9:R3-22:R3|PEPTIDE1,PEPTIDE1,16:R3-29:R3$$$V2.0)	–	–	IC50 [1]: > 10000 nM
CC(C)C[C@@H]1NC(=O)[C@@H](NC(=O)[C@H](C)N)CSSC[C@@H]2NC(=O)[C@@H]3CSSC[C@@H](C(=O)N[C@@H](CCCNC(=N)N)C(=O)N[C@@H](Cc4ccc(O)cc4)C(=O)N[C@@H](CCCCN)C(=O)N[C@@H](CC(C)C)C(=O)N[C@@H](Cc4ccccc4)C(=O)O)NC(=O)[C@H](Cc4c[nH]c5ccccc45)NC(=O)[C@@H]4CCCN4C(=O)[C@H](Cc4ccc(O)cc4)NC(=O)[C@H](CCCCN)NC(=O)[C@H](Cc4c[nH]c5ccccc45)NC(=O)[C@H](CCC(=O)O)NC(=O)[C@H](CSSC[C@H](NC(=O)[C@H](CO)NC(=O)[C@H](CC(=O)O)NC(=O)[C@H](Cc4c[nH]c5ccccc45)NC(=O)[C@H](CCC(N)=O)NC(=O)CNC1=O)C(=O)N[C@@H](CC(=O)O)C(=O)N1CCC[C@H]1C(=O)N[C@@H](CCCCN)C(=O)N[C@@H](C)C(=O)N[C@@H](CO)C(=O)N[C@@H](C)C(=O)N3)NC(=O)[C@H](C)NC(=O)[C@H](Cc1ccc(O)cc1)NC(=O)[C@H](CC(N)=O)NC(=O)[C@@H]1CCCN1C2=O [K15A] (HELM PEPTIDE1{A.C.L.G.Q.W.D.S.C.D.P.K.A.S.A.C.C.P.N.Y.A.C.E.W.K.Y.P.W.C.R.Y.K.L.F}$PEPTIDE1,PEPTIDE1,2:R3-17:R3|PEPTIDE1,PEPTIDE1,9:R3-22:R3|PEPTIDE1,PEPTIDE1,16:R3-29:R3$$$V2.0)	less than 3 fold	706	–
COC(=O)C1=C(C)NC(C)=C(C(=O)OC)C1c1ccccc1[N+](=O)[O-] [Nifedipine, reference compound]	–	–	IC90 ([2]; CHO): 10000 nM
Pre1a: spider toxin, NaV ligand (CLGWFSRCSPKNDKCCPNYKCSSKDLWCKYKIW)	–	–	IC50 [4]: 114 nM
CC(C)C[C@@H]1NC(=O)[C@@H](NC(=O)[C@H](C)N)CSSC[C@@H]2NC(=O)[C@@H]3CSSC[C@@H](C(=O)N[C@@H](CCCNC(=N)N)C(=O)N[C@@H](Cc4ccc(O)cc4)C(=O)N[C@@H](CCCCN)C(=O)N[C@@H](CC(C)C)C(=O)N[C@@H](Cc4ccccc4)C(=O)O)NC(=O)[C@H](Cc4c[nH]c5ccccc45)NC(=O)[C@@H]4CCCN4C(=O)[C@H](Cc4ccc(O)cc4)NC(=O)[C@H](CCCCN)NC(=O)[C@H](C)NC(=O)[C@H](CCC(=O)O)NC(=O)[C@H](CSSC[C@H](NC(=O)[C@H](CO)NC(=O)[C@H](CC(=O)O)NC(=O)[C@H](Cc4c[nH]c5ccccc45)NC(=O)[C@H](CCC(N)=O)NC(=O)CNC1=O)C(=O)N[C@@H](CC(=O)O)C(=O)N1CCC[C@H]1C(=O)N[C@@H](CCCCN)C(=O)N[C@@H](C)C(=O)N[C@@H](CO)C(=O)N[C@@H](CCCCN)C(=O)N3)NC(=O)[C@H](C)NC(=O)[C@H](Cc1ccc(O)cc1)NC(=O)[C@H](CC(N)=O)NC(=O)[C@@H]1CCCN1C2=O [W24A] (HELM PEPTIDE1{A.C.L.G.Q.W.D.S.C.D.P.K.A.S.K.C.C.P.N.Y.A.C.E.A.K.Y.P.W.C.R.Y.K.L.F}$PEPTIDE1,PEPTIDE1,2:R3-17:R3|PEPTIDE1,PEPTIDE1,9:R3-22:R3|PEPTIDE1,PEPTIDE1,16:R3-29:R3$$$V2.0)	–	–	IC50 [1]: > 10000 nM
CC(C)C[C@@H]1NC(=O)[C@@H](NC(=O)[C@@H]2CCC(=O)N2)CSSC[C@@H]2NC(=O)[C@@H]3CSSC[C@@H](C(=O)N[C@@H](CCCNC(=N)N)C(=O)N[C@@H](Cc4ccc(O)cc4)C(=O)N[C@@H](CCCCN)C(=O)N[C@@H](CC(C)C)C(=O)N[C@@H](Cc4ccccc4)C(=O)O)NC(=O)[C@H](Cc4c[nH]c5ccccc45)NC(=O)[C@@H]4CCCN4C(=O)[C@H](Cc4ccc(O)cc4)NC(=O)[C@H](CCCCN)NC(=O)[C@H](Cc4c[nH]c5ccccc45)NC(=O)[C@H](CCC(=O)O)NC(=O)[C@H](CSSC[C@H](NC(=O)[C@H](CO)NC(=O)[C@H](CC(=O)O)NC(=O)[C@H](Cc4c[nH]c5ccccc45)NC(=O)[C@H](CCC(N)=O)NC(=O)CNC1=O)C(=O)N[C@@H](CC(=O)O)C(=O)N1CCC[C@H]1C(=O)N[C@@H](CCCCN)C(=O)N[C@@H](C)C(=O)N[C@@H](CO)C(=O)N[C@@H](CCCCN)C(=O)N3)NC(=O)[C@H](C)NC(=O)[C@H](Cc1ccc(O)cc1)NC(=O)[C@H](CC(N)=O)NC(=O)[C@@H]1CCCN1C2=O [A1Z] (HELM PEPTIDE1{[Glp].C.L.G.Q.W.D.S.C.D.P.K.A.S.K.C.C.P.N.Y.A.C.E.W.K.Y.P.W.C.R.Y.K.L.F}$PEPTIDE1,PEPTIDE1,2:R3-17:R3|PEPTIDE1,PEPTIDE1,9:R3-22:R3|PEPTIDE1,PEPTIDE1,16:R3-29:R3$$$V2.0)	less than 3 fold	172	–
CC(C)C[C@@H]1NC(=O)[C@@H](NC(=O)[C@H](C)N)CSSC[C@@H]2NC(=O)[C@@H]3CSSC[C@@H](C(=O)N[C@@H](CCCNC(=N)N)C(=O)N[C@@H](Cc4ccc(O)cc4)C(=O)N[C@@H](CCCCN)C(=O)N[C@@H](CC(C)C)C(=O)N[C@@H](Cc4ccccc4)C(=O)O)NC(=O)[C@H](Cc4c[nH]c5ccccc45)NC(=O)[C@@H]4CCCN4C(=O)[C@H](Cc4ccc(O)cc4)NC(=O)[C@H](CCCCN)NC(=O)[C@H](Cc4c[nH]c5ccccc45)NC(=O)[C@H](CCC(=O)O)NC(=O)[C@H](CSSC[C@H](NC(=O)[C@H](CO)NC(=O)[C@H](CC(=O)O)NC(=O)[C@H](Cc4c[nH]c5ccccc45)NC(=O)[C@H](CCC(N)=O)NC(=O)CNC1=O)C(=O)N[C@@H](CC(=O)O)C(=O)N1CCC[C@H]1C(=O)N[C@@H](C)C(=O)N[C@@H](C)C(=O)N[C@@H](CO)C(=O)N[C@@H](CCCCN)C(=O)N3)NC(=O)[C@H](C)NC(=O)[C@H](Cc1ccc(O)cc1)NC(=O)[C@H](CC(N)=O)NC(=O)[C@@H]1CCCN1C2=O [K12A] (HELM PEPTIDE1{A.C.L.G.Q.W.D.S.C.D.P.A.A.S.K.C.C.P.N.Y.A.C.E.W.K.Y.P.W.C.R.Y.K.L.F}$PEPTIDE1,PEPTIDE1,2:R3-17:R3|PEPTIDE1,PEPTIDE1,9:R3-22:R3|PEPTIDE1,PEPTIDE1,16:R3-29:R3$$$V2.0)	less than 3 fold	252	–
CC(C)C[C@@H]1NC(=O)[C@@H](NC(=O)[C@H](C)N)CSSC[C@@H]2NC(=O)[C@@H]3CSSC[C@@H](C(=O)N[C@@H](CCCNC(=N)N)C(=O)N[C@@H](Cc4ccc(O)cc4)C(=O)N[C@@H](CCCCN)C(=O)N[C@@H](CC(C)C)C(=O)N[C@@H](Cc4ccccc4)C(=O)O)NC(=O)[C@H](Cc4c[nH]c5ccccc45)NC(=O)[C@@H]4CCCN4C(=O)[C@H](Cc4ccc(O)cc4)NC(=O)[C@H](CCCCN)NC(=O)[C@H](Cc4c[nH]c5ccccc45)NC(=O)[C@H](CCC(=O)O)NC(=O)[C@H](CSSC[C@H](NC(=O)[C@H](C)NC(=O)[C@H](CC(=O)O)NC(=O)[C@H](Cc4c[nH]c5ccccc45)NC(=O)[C@H](CCC(N)=O)NC(=O)CNC1=O)C(=O)N[C@@H](CC(=O)O)C(=O)N1CCC[C@H]1C(=O)N[C@@H](CCCCN)C(=O)N[C@@H](C)C(=O)N[C@@H](CO)C(=O)N[C@@H](CCCCN)C(=O)N3)NC(=O)[C@H](C)NC(=O)[C@H](Cc1ccc(O)cc1)NC(=O)[C@H](CC(N)=O)NC(=O)[C@@H]1CCCN1C2=O [S8A] (HELM PEPTIDE1{A.C.L.G.Q.W.D.A.C.D.P.K.A.S.K.C.C.P.N.Y.A.C.E.W.K.Y.P.W.C.R.Y.K.L.F}$PEPTIDE1,PEPTIDE1,2:R3-17:R3|PEPTIDE1,PEPTIDE1,9:R3-22:R3|PEPTIDE1,PEPTIDE1,16:R3-29:R3$$$V2.0)	less than 3 fold	180	–
